Measured values reported in patent publication US20090298834A1, “4-(AMINOMETHYL)CYCLOHEXANAMINE DERIVATIVES AS CALCIUM CHANNEL BLOCKERS” (priority 2008, published 2009).

molecular target: T1, human α1G T-type channels (Homo sapiens, UniProt O43497); assay: T-type calcium channel block, whole cell patch clamp (α1G); format: cell-based; conditions: HEK cells stably expressing human α1G; mainly non-inactivated protocol; values above 10 μM represented as 10 μM, values below 0.30 μM represented as 0.30 μM
T1 construct: expressed in transfected cells; host or cells: HEK 293
Description: (§1) T-type calcium channel blocking activity was assayed in human embryonic kidney cells, HEK 293, stably transfected with the T-type calcium channel subunits. Briefly, cells were cultured in Dulbecco's modified eagle medium (DMEM) supplemented with 10% fetal bovine serum, 200 U/ml penicillin and 0.2 mg/ml streptomycin at 37° C. with 5% CO2. At 85% confluency cells were split with 0.25% trypsin/1 mM EDTA and plated at 10% confluency on glass coverslips. At 12 hours the medium was replaced and the cells stably transfected using a standard calcium phosphate protocol and the appropriate calcium channel cDNA's. Fresh DMEM was supplied and the cells transferred to 28° C./5% CO2. Cells were incubated for 1 to 2 days prior to whole cell recording.
(§2) Standard patch-clamp techniques were employed to identify blockers of T-type currents. Briefly, previously described HEK cell lines stably expressing human α1G, α1H and α1I T-type channels were used for all the recordings (passage #: 4-20, 37° C., 5% CO2). Whole cell patch clamp experiments were performed using an Axopatch 200B amplifier (Axon Instruments, Burlingame, Calif.) linked to a personal computer equipped with pCLAMP software. Data were analyzed using Clampfit (Axon Instruments) and SigmaPlot 4.0 (Jandel Scientific). To obtain T-type currents, plastic dishes containing semi-confluent cells were positioned on the stage of a ZEISS AXIOVERT S100 microscope after replacing the culture medium with external solution (see below). Whole-cell patches were obtained using pipettes (borosilicate glass with filament, O.D.: 1.5 mm, I.D.: 0.86 mm, 10 cm length), fabricated on a SUTTER P-97 puller with resistance values of ˜5 MΩ (see below for internal solution).
(§3) In the non-inactivating protocol, the holding potential is set at −110 mV and with a pre-pulse at −100 mV for 1 second prior to the test pulse at −40 mV for 50 ms. In the inactivation protocol, the pre-pulse is at approximately −85 mV for 1 second, which inactivates about 15% of the T-type channels.
(§4) Test compounds were dissolved in external solution, 0.1-0.01% DMSO. After 10 min rest, they were applied by gravity close to the cell using a WPI microfil tubing. The “non-inactivated” pre-pulse was used to examine the resting block of a compound. The “inactivated” protocol was employed to study voltage-dependent block. However, the initial data shown below were mainly obtained using the non-inactivated protocol only. . IC50 values are shown for various compounds of the invention in Table 4 for the drug of interest. Values are shown in μM and values above 10 μM are simply represented as 10 μM.

T1 sequence (O43497 whole entry): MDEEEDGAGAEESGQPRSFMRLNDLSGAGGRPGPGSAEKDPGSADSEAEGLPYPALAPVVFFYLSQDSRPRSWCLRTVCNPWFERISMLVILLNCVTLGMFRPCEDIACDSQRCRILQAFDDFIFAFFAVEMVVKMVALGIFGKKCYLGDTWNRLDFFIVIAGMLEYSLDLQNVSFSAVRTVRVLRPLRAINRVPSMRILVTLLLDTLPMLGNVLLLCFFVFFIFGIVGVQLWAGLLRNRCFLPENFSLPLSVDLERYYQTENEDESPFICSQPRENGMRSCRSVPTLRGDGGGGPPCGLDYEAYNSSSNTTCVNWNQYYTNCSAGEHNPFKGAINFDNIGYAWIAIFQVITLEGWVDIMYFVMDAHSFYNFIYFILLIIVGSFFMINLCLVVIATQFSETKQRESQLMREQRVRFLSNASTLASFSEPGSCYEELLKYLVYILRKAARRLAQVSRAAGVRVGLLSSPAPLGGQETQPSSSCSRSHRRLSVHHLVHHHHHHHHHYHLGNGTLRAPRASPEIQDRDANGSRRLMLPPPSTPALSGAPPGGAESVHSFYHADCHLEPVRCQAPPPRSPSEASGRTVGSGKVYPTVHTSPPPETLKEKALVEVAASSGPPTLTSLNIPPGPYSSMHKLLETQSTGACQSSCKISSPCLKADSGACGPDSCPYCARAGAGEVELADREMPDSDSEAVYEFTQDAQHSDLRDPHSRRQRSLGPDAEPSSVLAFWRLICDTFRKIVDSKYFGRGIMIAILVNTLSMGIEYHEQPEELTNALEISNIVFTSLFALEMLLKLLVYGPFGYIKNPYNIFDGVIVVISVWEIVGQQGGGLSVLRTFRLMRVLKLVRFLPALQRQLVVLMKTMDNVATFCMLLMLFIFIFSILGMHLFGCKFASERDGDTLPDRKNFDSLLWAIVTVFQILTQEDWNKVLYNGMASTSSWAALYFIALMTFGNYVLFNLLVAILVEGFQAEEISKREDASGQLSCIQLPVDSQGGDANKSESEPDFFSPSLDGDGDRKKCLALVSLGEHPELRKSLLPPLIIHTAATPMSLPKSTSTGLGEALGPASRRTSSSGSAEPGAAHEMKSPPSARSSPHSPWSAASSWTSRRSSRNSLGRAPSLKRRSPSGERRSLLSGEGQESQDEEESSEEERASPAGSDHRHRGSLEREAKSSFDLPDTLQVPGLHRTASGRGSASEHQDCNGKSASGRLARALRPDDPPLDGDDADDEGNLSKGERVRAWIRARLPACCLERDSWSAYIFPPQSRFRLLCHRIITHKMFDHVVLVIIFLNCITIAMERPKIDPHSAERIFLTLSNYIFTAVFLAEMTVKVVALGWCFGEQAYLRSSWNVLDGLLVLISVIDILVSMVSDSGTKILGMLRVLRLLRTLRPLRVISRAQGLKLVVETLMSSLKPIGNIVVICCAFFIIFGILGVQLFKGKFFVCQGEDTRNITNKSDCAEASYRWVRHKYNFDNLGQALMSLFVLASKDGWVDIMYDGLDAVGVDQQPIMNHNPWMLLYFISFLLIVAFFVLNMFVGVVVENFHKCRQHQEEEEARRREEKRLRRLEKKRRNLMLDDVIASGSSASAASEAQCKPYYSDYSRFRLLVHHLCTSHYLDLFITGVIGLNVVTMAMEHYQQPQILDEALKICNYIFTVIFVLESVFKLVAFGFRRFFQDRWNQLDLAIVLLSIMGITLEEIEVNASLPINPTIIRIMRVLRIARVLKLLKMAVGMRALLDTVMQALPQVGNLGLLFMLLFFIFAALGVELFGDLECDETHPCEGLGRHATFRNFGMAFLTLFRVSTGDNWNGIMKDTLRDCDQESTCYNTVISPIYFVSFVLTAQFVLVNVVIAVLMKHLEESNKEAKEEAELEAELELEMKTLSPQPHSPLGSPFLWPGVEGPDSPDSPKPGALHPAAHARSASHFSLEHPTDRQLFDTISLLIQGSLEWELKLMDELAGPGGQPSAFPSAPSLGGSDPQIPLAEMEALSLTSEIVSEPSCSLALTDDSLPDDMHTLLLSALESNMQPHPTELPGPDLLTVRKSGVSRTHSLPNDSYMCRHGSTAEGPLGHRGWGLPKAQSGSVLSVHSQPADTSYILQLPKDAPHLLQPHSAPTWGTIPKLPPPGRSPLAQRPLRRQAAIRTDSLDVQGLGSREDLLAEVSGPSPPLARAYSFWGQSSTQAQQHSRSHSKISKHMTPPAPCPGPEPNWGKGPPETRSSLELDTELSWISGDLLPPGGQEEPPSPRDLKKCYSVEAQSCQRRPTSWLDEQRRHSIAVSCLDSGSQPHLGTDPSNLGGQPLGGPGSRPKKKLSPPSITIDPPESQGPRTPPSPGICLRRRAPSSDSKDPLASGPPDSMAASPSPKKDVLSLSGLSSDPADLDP

Structure (SMILES)	IC50 [µM]
NC1(C(=O)N[C@H]2CC[C@@H](CC(=O)NCc3cccc(OC(F)(F)F)c3)CC2)CCCCC1 [Compound 109, 1-amino-N-(cis-4-(2-oxo-2-(3-(trifluoromethoxy)benzylamino)ethyl)cyclohexyl)cyclohexanecarboxamide]	≥ 10
O=C(C[C@H]1CC[C@@H](NC(=O)C2(c3ccccc3)CCNCC2)CC1)NCc1cccc(OC(F)(F)F)c1 [Compound 114, N-(cis-4-(2-oxo-2-(3-(trifluoromethoxy)benzylamino)ethyl)cyclohexyl)-4-phenylpiperidin-4-carboxamide]	≥ 10
O=C(NC[C@H]1CC[C@@H](NC(=O)C2(c3ccccc3)CCNCC2)CC1)c1cc(C(F)(F)F)cc(C(F)(F)F)c1 [Compound 128, N-(cis-4-((3,5-bis(trifluoromethyl)benzamido)methyl)cyclohexyl)-4-phenylpiperidine-4-carboxamide]	5.78
Cc1ccc(-c2csc(NC(=O)C[C@H]3CC[C@@H](NC(=O)[C@@H]4C[C@@H](c5ccccc5)CN4)CC3)n2)cc1 [Compound 129, (2S,4S)-N-(cis-4-(2-oxo-2-(4-p-tolylthiazol-2-ylamino)ethyl)cyclohexyl)-4-phenylpyrrolidine-2-carboxamide]	5.29
Cc1ccc(-c2csc(NC(=O)C[C@H]3CC[C@@H](NC(=O)[C@@H]4C[C@H](c5ccccc5)CN4)CC3)n2)cc1 [Compound 130, (2S,4R)-N-(cis-4-(2-oxo-2-(4-p-tolylthiazol-2-ylamino)ethyl)cyclohexyl)-4-phenylpyrrolidine-2-carboxamide]	4.11
Cc1ccc(-c2csc(NC(=O)C[C@H]3CC[C@@H](NC(=O)[C@@H]4CC[C@H](c5ccccc5)N4)CC3)n2)cc1 [Compound 131]	7.56
O=C(NC[C@H]1CC[C@H](NC(=O)C2(c3ccccc3)CCNCC2)CC1)c1cc(C(F)(F)F)cc(C(F)(F)F)c1 [Compound 136, N-(trans-4-((3,5-bis(trifluoromethyl)benzamido)methyl)cyclohexyl)-4-phenylpiperidine-4-carboxamide]	3.81
Cc1ccc(-c2csc(NC(=O)C[C@H]3CC[C@@H](NC(=O)[C@H]4CC[C@@H](c5ccccc5)N4)CC3)n2)cc1 [Compound 138, (2R,5S)-N-(cis-4-(2-oxo-2-(4-p-tolylthiazol-2-ylamino)ethyl)cyclohexyl)-5-phenylpyrrolidine-2-carboxamide]	4.88
O=C(NC[C@H]1CC[C@H](NCCNS(=O)(=O)C(F)(F)F)CC1)c1cc(C(F)(F)F)cc(C(F)(F)F)c1 [Compound 155, 3,5-bis(trifluoromethyl)-N-((trans-4-(2-(trifluoromethylsulfonamido)ethylamino)cyclohexyl)methyl)benzamide]	2.65
O=C(NC[C@H]1CC[C@@H](NCCNS(=O)(=O)C(F)(F)F)CC1)c1cc(F)cc(C(F)(F)F)c1 [Compound 156, 3-fluoro-5-(trifluoromethyl)-N-((cis-4-(2-(trifluoromethylsulfonamido)ethylamino)cyclohexyl)methyl)benzamide]	≥ 10

The next lines start with the values.

IC50 [µM]	Structure (SMILES)
6.11	N[C@H]1CC[C@@H](CC(=O)Nc2cc(C(F)(F)F)cc(C(F)(F)F)c2)CC1 [Compound 106, 2-(cis-4-aminocyclohexyl)-N-(3,5-bis(trifluoromethyl)phenyl)acetamide]
4.89	O=C(C[C@H]1CC[C@H](NC(=O)[C@H]2CCCN2)CC1)Nc1cc(C(F)(F)F)cc(C(F)(F)F)c1 [Compound 118, (R)-N-(trans-4-(2-(3,5-bis(trifluoromethyl)phenylamino)-2-oxoethyl)cyclohexyl)pyrrolidine-2-carboxamide]
4.44	O=C(C[C@H]1CC[C@H](NC(=O)[C@@H]2CCCCN2)CC1)Nc1cc(C(F)(F)F)cc(C(F)(F)F)c1 [Compound 120, (S)-N-(trans-4-(2-(3,5-bis(trifluoromethyl)phenylamino)-2-oxoethyl)cyclohexyl)piperidine-2-carboxamide]
9.67	NC1(C(=O)N[C@H]2CC[C@@H](CNC(=O)c3cc(C(F)(F)F)cc(C(F)(F)F)c3)CC2)CCCC1 [Compound 140, N-((cis-4-(1-aminocyclopentanecarboxamido)cyclohexyl)methyl)-3,5-bis(trifluoromethyl)benzamide]
≥ 10	NC1(C(=O)N[C@H]2CC[C@@H](CNC(=O)c3cc(F)cc(C(F)(F)F)c3)CC2)CCCC1 [Compound 141, N-((cis-4-(1-aminocyclopentanecarboxamido)cyclohexyl)methyl)-3-fluoro-5-(trifluoromethyl)benzamide]
≥ 10	NC1(C(=O)N[C@H]2CC[C@H](CNC(=O)c3cc(C(F)(F)F)cc(C(F)(F)F)c3)CC2)CCCC1 [Compound 142, N-((trans-4-(1-aminocyclopentanecarboxamido)cyclohexyl)methyl)-3,5-bis(trifluoromethyl)benzamide]
3.82	O=C(C[C@H]1CC[C@@H](NC(=O)C2CCNCC2)CC1)Nc1cc(C(F)(F)F)cc(C(F)(F)F)c1 [Compound 144, N-(cis-4-(2-(3,5-bis(trifluoromethyl)phenylamino)-2-oxoethyl)cyclohexyl)piperidine-4-carboxamide]
7.6	O=C(C[C@H]1CC[C@@H](NC(=O)[C@H]2C[C@H](O)CN2)CC1)Nc1cc(C(F)(F)F)cc(C(F)(F)F)c1 [Compound 145]
4.59	NC1(C(=O)N[C@H]2CC[C@@H](CC(=O)Nc3cc(C(F)(F)F)cc(C(F)(F)F)c3)CC2)CCOCC1 [Compound 147, 4-amino-N-(cis-4-(2-(3,5-bis(trifluoromethyl)phenylamino)-2-oxoethyl)cyclohexyl)tetrahydro-2H-pyran-4-carboxamide]
2.94	O=C(C[C@H]1CC[C@@H](NC(=O)C2(O)CCNCC2)CC1)Nc1cc(C(F)(F)F)cc(C(F)(F)F)c1 [Compound 148, N-(cis-4-(2-(3,5-bis(trifluoromethyl)phenylamino)-2-oxoethyl)cyclohexyl)-4-hydroxypipendine-4-carboxamide]
4.07	NC1(C(=O)N[C@H]2CC[C@@H](CC(=O)Nc3cc(C(F)(F)F)cc(C(F)(F)F)c3)CC2)CC1 [Compound 149, 1-amino-N-(cis-4-(2-(3,5-bis(trifluoromethyl)phenylamino)-2-oxoethyl)cyclohexyl)cyclopropanecarboxamide]

molecular target: T2, human α1H T-type channels (Homo sapiens, UniProt O95180); assay: T-type calcium channel block, whole cell patch clamp (α1H); format: cell-based; conditions: HEK cells stably expressing human α1H; mainly non-inactivated protocol; values above 10 μM represented as 10 μM
T2 construct: expressed in transfected cells; host or cells: HEK 293
Description: as §1, §2, §3, §4

T2 sequence (O95180 whole entry): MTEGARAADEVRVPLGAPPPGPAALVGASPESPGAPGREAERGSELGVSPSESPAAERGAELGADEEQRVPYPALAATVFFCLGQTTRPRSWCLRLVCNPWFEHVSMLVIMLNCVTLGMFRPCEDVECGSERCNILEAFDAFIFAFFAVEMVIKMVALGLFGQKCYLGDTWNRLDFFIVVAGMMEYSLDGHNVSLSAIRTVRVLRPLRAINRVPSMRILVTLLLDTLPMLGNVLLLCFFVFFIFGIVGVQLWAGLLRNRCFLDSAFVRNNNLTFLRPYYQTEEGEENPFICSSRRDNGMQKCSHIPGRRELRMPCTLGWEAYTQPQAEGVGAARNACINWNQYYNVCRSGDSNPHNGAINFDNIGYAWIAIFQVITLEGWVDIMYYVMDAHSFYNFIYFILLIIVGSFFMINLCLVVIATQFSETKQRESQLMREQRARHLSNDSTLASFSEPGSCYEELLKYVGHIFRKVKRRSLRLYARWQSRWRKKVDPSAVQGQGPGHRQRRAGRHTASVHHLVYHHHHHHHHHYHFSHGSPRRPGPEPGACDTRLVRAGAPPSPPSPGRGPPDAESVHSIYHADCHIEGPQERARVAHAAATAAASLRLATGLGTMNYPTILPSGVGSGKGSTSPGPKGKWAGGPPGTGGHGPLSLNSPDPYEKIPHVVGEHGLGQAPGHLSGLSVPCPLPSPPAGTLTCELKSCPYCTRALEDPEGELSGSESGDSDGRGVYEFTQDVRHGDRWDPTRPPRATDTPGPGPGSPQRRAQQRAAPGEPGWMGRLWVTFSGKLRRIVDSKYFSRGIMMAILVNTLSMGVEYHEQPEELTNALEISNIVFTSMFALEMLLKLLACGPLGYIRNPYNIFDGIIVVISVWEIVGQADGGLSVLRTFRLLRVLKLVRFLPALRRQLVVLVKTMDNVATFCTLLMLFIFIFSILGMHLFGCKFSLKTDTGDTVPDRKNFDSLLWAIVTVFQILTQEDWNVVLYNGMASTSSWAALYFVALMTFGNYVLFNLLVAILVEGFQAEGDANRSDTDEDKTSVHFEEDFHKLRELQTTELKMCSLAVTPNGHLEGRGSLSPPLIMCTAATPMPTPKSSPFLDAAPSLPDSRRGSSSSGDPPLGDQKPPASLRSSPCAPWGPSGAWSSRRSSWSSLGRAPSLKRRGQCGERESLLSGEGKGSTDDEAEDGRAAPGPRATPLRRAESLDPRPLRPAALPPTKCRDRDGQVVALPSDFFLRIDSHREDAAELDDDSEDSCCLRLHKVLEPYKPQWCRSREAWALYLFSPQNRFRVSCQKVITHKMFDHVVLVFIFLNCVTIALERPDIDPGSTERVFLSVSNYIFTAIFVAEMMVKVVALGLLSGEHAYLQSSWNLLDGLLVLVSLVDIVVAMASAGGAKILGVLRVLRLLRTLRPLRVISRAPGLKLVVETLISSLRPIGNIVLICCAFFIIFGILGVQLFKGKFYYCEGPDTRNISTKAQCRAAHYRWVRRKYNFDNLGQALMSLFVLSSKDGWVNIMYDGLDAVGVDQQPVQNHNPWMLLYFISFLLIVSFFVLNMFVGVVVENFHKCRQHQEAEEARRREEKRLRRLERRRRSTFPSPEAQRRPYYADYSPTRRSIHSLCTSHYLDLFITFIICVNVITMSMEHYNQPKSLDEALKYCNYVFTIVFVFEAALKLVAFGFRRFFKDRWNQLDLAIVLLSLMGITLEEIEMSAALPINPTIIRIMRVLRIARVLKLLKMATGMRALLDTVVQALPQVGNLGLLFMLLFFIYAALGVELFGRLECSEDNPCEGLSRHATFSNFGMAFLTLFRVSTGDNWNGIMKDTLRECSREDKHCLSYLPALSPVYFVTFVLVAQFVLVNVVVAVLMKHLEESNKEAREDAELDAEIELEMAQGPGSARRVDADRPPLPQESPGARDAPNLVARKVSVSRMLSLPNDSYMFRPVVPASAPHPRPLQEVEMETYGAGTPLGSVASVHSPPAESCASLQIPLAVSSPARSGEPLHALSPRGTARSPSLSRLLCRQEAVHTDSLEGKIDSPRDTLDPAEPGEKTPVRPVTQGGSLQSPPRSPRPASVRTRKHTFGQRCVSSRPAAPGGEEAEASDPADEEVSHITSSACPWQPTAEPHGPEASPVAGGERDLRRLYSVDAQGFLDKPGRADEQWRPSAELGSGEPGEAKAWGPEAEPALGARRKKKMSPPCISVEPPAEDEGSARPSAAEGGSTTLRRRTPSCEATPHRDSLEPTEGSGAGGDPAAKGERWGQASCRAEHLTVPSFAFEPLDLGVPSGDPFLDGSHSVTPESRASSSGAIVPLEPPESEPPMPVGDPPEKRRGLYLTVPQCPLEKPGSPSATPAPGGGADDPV

IC50 [µM]	Structure (SMILES)
0.25	Cc1cc(CN[C@H]2CC[C@@H](CNC(=O)c3cc(F)cc(C(F)(F)F)c3)CC2)cc(C)c1O [Compound 5, 3-fluoro-N-((cis-4-(4-hydroxy-3,5-dimethylbenzylamino)cyclohexyl)methyl)-5-(trifluoromethyl)benzamide]
0.28	CC(C)(C)OC(=O)NC1(CN[C@H]2CC[C@@H](CNC(=O)c3cc(C(F)(F)F)cc(C(F)(F)F)c3)CC2)CCCC1 [Compound 6, tert-butyl 1-((cis-4-((3,5-bis(trifluoromethyl)benzamido)methyl)cyclohexylamino)methyl)cyclopentylcarbamate]
2.24	Cc1cccc(CN[C@H]2CC[C@H](CNC(=O)c3cc(C(F)(F)F)cc(C(F)(F)F)c3)CC2)c1O [Compound 28, N-((trans-4-(2-hydroxy-3-methylbenzylamino)cyclohexyl)methyl)-3,5-bis(trifluoromethyl)benzamide]
≥ 10	COc1ccc(CN[C@H]2CC[C@@H](CC(=O)Nc3nc(-c4ccc(C)cc4)cs3)CC2)c(O)c1 [Compound 36, 2-(cis-4-(2-hydroxy-4-methoxybenzylamino)cyclohexyl)-N-(4-p-tolylthiazol-2-yl)acetamide]
5.37	Cc1ccc(-c2csc(NC(=O)C[C@H]3CC[C@@H](NCC4(NC(=O)OC(C)(C)C)CCCC4)CC3)n2)cc1 [Compound 37]
7.93	Cc1ccc(-c2csc(NC(=O)C[C@H]3CC[C@@H](NCC(C)(C)NC(=O)OC(C)(C)C)CC3)n2)cc1 [Compound 38, tert-butyl 2-methyl-1-(cis-4-(2-oxo-2-(4-p-tolylthiazol-2-ylamino)ethyl)cyclohexylamino)propan-2-ylcarbamate]
0.44	CC(C)(C)OC(=O)NCCN[C@H]1CC[C@@H](CNC(=O)c2cc(Cl)cc(C(F)(F)F)c2)CC1 [Compound 99, tert-butyl 2-(cis-4-((3-chloro-5-(trifluoromethyl)benzamido)methyl)cyclohexylamino)ethylcarbamate]
